Laboratory results as given in patent publication US20110039873A1, “SUBSTITUTED PYRAZOLO[1,5-a] PYRIDINE COMPOUNDS HAVING MULTI-TARGET ACTIVITY” (priority 2009, published 2011).
Read-outs that look alike come from different tables or passages of the source.

How the values were obtained:
[1] = molecular target: T1, catalytic domain of phosphodiesterase 4B enzyme cloned from human brain (Homo sapiens, UniProt Q07343); assay: PDE4 inhibition assay (PDELight); format: biochemical; conditions: for IC50: 5 uM cAMP, read-out: PDE 4 Inhibition (IC50 in μM)
T1 construct: the catalytic domain of phosphodiesterase 4B enzyme; purchased Scottish Biomedical
Method: In a 96-well plate, the catalytic domain of phosphodiesterase 4B enzyme (40 mU/well) cloned from human brain (Scottish Biomedical) was combined with 5 uM cAMP substrate (Sigma). […] Using a PDELight® kit (Cambrex), the amount of AMP produced in the reaction from the hydrolysis of cAMP was quantified using PDELight AMP Detection Reagent which converts the AMP directly to ATP. The assay uses luciferase, which catalyses the formation of light from the newly formed ATP and luciferin. […] IC50 calculations were plotted using a nonlinear regression curve fit.

[2] = molecular target: T2, recombinant full length human JNK3 enzyme (Homo sapiens, UniProt P53779); assay: JNK 3 inhibition assay (ATP depletion, luciferase); format: biochemical; conditions: for IC50: 10 uM ATP, ATF2 substrate; for JNK-3 inhibition (in words): see Table 2
T2 construct: recombinant full length human JNK2 or JNK3 enzyme; purchased Upstate; host or cells: Sf21 cells
Method: In a 96-well plate, recombinant full length human JNK2 or JNK3 enzyme (40 ng) expressed in Sf21 cells (Upstate) was incubated with the substrate ATF2 (3 uM) for 1 hour in the presence of 10 uM ATP. […] The ATP levels were quantified using luciferase with luminescence read on a Victor Light 1420 luminometer. IC50 calculations were plotted using a nonlinear regression curve fit.

[3] = system: rat chronic constriction injury (CCI) model of neuropathic pain; assay: Rat chronic constriction injury (CCI) model of neuropathic pain; format: in vivo; conditions: IP, dose not given; 50% paw withdrawal threshold, von Frey
Method: To induce allodynia, male Sprague-Dawley rats underwent chronic constriction injury (CCI) to the sciatic nerve as described by Bennett and Xie, Pain 1988; 33(1):87-107. The plantar surface of the hind paws was stimulated with von Frey filaments (Stoelting) to induce a withdrawal response by blinded personnel. The bending force of fiber required to induce a 50% withdrawal response was calculated following CCI surgery (pre-dosing baseline). N=5-6 allodynic rats received a single IP or oral administration of test compounds or vehicle. Two hours post-dosing, 50% paw withdrawal threshold was determined again by blinded testers using von Frey filaments. The 50% withdrawal threshold prior to CCI surgery, pre-dosing (10 days post-surgery), and 2 hours post-dosing are plotted.
For selected compounds multi-day studies were perfumed with pre-determined schedules for dosing and withdrawal threshold assessments.

[4] = molecular target: T3, recombinant human phosphodiesterase 10A1 enzyme (Homo sapiens, UniProt Q9Y233); assay: PDE10 inhibition assay (PDELight); format: biochemical; conditions: for IC50: 1 uM cAMP, read-out: PDE 10 Inhibition (IC50 in μM); for PDE-10 inhibition (in words): Table 2
T3 construct: purchased BPS Biosciences; host or cells: Baculovirus infected Sf9 cells
Method: In a 96-well plate, recombinant human phosphodiesterase 10A1 enzyme (10 U/well) expressed in Baculovirus infected Sf9 cells (BPS Biosciences) was combined with 1 uM cAMP substrate (Sigma). […] Using a PDELight® kit (Cambrex), the amount of AMP produced in the reaction from the hydrolysis of cAMP was quantified using PDELight AMP Detection Reagent which converts the AMP directly to ATP. The assay uses luciferase, which catalyses the formation of light from the newly formed ATP and luciferin. The luminescence was read on a Victor Light 1420 luminometer. IC50 calculations were plotted using a nonlinear regression curve fit.

[5] = system: at least one of JNK 3 or JNK 2 and at least one of PDE 10 or PDE 4; assay: Dual inhibition (phosphodiesterase and JNK); format: biochemical, human; conditions: IC50 JNK 3 or JNK 2 less than about 5.00 μM and PDE 10 or PDE 4 less than about 20.0 or 30.0 μM
Method: In a 96-well plate, recombinant full length human JNK2 or JNK3 enzyme (40 ng) expressed in Sf21 cells (Upstate) was incubated with the substrate ATF2 (3 uM) for 1 hour in the presence of 10 uM ATP. The amount of ATP depletion by the JNK enzyme is measured in the presence or absence of test compounds (0-30 uM). The ATP levels were quantified using luciferase with luminescence read on a Victor Light 1420 luminometer. IC50 calculations were plotted using a nonlinear regression curve fit.
In a 96-well plate, the catalytic domain of phosphodiesterase 4B enzyme (40 mU/well) cloned from human brain (Scottish Biomedical) was combined with 5 uM cAMP substrate (Sigma). Test compounds (0-30 uM) or vehicle (0.5% DMSO) were added to the enzyme/substrate and incubated 1 hour. Using a PDELight® kit (Cambrex), the amount of AMP produced in the reaction from the hydrolysis of cAMP was quantified using PDELight AMP Detection Reagent which converts the AMP directly to ATP. The assay uses luciferase, which catalyses the formation of light from the newly formed ATP and luciferin. The luminescence was read on a Victor Light 1420 luminometer. IC50 calculations were plotted using a nonlinear regression curve fit.
In a 96-well plate, recombinant human phosphodiesterase 10A1 enzyme (10 U/well) expressed in Baculovirus infected Sf9 cells (BPS Biosciences) was combined with 1 uM cAMP substrate (Sigma). Test compounds (0-30 uM) or vehicle (0.5% DMSO) were added to the enzyme/substrate and incubated 1 hour. Using a PDELight® kit (Cambrex), the amount of AMP produced in the reaction from the hydrolysis of cAMP was quantified using PDELight AMP Detection Reagent which converts the AMP directly to ATP. The assay uses luciferase, which catalyses the formation of light from the newly formed ATP and luciferin. The luminescence was read on a Victor Light 1420 luminometer. IC50 calculations were plotted using a nonlinear regression curve fit.

[6] = molecular target: T4, recombinant full length human JNK2 enzyme (Homo sapiens, UniProt P45984); assay: JNK 2 inhibition assay (ATP depletion, luciferase); format: biochemical
T4 construct: recombinant full length human JNK2 or JNK3 enzyme; purchased Upstate; host or cells: Sf21 cells
Method: In a 96-well plate, recombinant full length human JNK2 or JNK3 enzyme (40 ng) expressed in Sf21 cells (Upstate) was incubated with the substrate ATF2 (3 uM) for 1 hour in the presence of 10 uM ATP. […] IC50 calculations were plotted using a nonlinear regression curve fit.

[7] = system: Mouse BV-2 microglial cells; assay: BV-2 glial cell assay (TNF-α and MCP-1 by Luminex); format: cell-based; conditions: for EC50: Mus musculus, BV-2, LPS and IFN-γ activated, 20 hours
Method: Mouse BV-2 microglial cells were seeded on 96-well plates at a concentration of 3×10^4 cells/well. Cells were activated with 100 ng/mL LPS and IFN-γ (100 ng/mL) in the presence or absence of test compounds (0-30 uM). Following incubation for 20 hours, cells were spun down and supernatant collected. The supernatant was analyzed via Luminex for the presence of TNF-α and MCP-1.

[8] = read-out: IC50 value based upon a JNK 2 inhibition assay (range given)
[9] = 10 uM ATP, ATF2 substrate, read-out: JNK 2 Inhibition (IC50 in μM)

T2 sequence (P53779 whole entry): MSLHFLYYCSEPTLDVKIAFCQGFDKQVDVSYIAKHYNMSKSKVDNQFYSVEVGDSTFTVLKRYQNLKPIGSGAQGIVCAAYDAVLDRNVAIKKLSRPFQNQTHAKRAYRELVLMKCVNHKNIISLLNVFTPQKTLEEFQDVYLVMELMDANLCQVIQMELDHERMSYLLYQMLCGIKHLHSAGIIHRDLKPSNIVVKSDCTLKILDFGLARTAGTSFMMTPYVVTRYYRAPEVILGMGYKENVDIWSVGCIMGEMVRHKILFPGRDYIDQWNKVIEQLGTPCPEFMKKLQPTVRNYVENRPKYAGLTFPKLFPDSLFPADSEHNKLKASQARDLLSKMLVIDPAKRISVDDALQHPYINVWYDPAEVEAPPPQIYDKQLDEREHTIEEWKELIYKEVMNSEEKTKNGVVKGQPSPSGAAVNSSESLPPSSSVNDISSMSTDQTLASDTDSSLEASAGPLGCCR
T4 sequence (P45984 whole entry): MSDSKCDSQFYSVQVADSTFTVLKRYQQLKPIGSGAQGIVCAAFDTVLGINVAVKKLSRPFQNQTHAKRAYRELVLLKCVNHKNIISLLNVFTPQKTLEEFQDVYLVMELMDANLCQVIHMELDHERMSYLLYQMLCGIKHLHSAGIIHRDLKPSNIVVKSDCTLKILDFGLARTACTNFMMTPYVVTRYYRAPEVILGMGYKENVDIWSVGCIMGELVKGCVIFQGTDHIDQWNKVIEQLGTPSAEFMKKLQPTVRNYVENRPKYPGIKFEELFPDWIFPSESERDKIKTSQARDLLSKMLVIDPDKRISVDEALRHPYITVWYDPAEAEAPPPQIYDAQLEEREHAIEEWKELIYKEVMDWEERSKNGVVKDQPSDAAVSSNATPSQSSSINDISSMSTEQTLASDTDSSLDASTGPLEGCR
T1 sequence (Q07343 330-659 limits assumed): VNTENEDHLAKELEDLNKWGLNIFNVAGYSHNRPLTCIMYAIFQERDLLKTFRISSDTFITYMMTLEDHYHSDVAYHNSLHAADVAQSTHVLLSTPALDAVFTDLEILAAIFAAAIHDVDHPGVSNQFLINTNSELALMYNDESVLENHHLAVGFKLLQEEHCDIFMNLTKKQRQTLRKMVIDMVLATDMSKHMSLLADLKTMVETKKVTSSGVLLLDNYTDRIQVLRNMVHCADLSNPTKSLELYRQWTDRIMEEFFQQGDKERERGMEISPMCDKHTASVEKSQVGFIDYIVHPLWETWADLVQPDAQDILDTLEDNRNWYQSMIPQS
T3 sequence (Q9Y233 1-779 isoform Q9Y233-1): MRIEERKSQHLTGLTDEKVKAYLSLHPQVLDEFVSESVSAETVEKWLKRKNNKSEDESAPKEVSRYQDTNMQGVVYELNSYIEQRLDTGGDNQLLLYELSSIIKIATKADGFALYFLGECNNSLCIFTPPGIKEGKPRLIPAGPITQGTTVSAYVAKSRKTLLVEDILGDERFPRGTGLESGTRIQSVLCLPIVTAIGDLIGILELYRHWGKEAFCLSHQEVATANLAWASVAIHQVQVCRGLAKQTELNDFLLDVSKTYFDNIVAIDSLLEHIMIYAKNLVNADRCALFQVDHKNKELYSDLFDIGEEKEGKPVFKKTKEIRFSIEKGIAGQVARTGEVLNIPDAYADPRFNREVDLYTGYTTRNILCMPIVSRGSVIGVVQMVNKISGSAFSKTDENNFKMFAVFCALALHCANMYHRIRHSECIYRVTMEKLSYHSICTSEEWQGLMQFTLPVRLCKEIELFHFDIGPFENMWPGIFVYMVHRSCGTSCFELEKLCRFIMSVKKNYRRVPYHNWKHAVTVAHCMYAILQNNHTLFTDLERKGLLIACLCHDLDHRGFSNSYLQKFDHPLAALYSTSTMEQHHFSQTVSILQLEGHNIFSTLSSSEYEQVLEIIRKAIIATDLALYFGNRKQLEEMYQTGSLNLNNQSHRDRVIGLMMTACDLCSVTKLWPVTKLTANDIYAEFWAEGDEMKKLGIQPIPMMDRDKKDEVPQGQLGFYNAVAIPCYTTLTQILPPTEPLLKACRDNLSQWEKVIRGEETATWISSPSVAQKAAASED

Row | Structure (SMILES) | PDE-4 inhibition (in words) [1] | IC50 [1] | IC50 [2] | IP CCI efficacy (Change in grams) [3] | IC50 [4] | PDE-10 inhibition (in words) [4] | dual inhibition (phosphodiesterase and JNK) [5] | JNK-3 inhibition (in words) [2] | IC50 [6, 8] | IC50 [6, 9] | EC50 ([7]; read-out: MCP-1 BV-2 (EC50 in μM)) | EC50 ([7]; read-out: TNF-a BV-2 (EC50 in μM)) | inhibiting glial cell activation (TNF-α and/or MCP-1) ([7]; Table 3)
1 | CC(C)c1nn2ccccc2c1-c1ccnc(NCCCO)n1 [AV1134, 3-(4-(2-isopropylpyrazolo[1,5-a]pyridin-3-yl)pyrimidin-2-ylamino)propan-1-ol] | particularly effective | 6.2 µM | 8.2 µM | 0 grams | 9.3 µM | particularly effective | effective dual inhibitors | – | – | – | – | – | –
2 | CC(C)c1nn2ccccc2c1-c1ccnc(NC2CC2)n1 [AV1136, N-cyclopropyl-4-(2-isopropylpyrazolo[1,5-a]pyridin-3-yl)pyrimidin-2-amine] | particularly effective | 4.5 µM | 1.5 µM | 0 grams | 16.8 µM | particularly effective | effective dual inhibitors | particularly effective | – | – | – | – | –
3 | CC(C)c1nn2ccccc2c1-c1ccnc(NC2CCC2)n1 [AV1156, N-cyclobutyl-4-(2-isopropylpyrazolo[1,5-a]pyridin-3-yl)pyrimidin-2-amine] | particularly effective | 8.6 µM | 3 µM | 0.33 grams | 20 µM | – | effective dual inhibitors | – | 0.01 to 2 µM | – | – | – | –
4 | CC(C)CNc1nccc(-c2cnn3ccccc23)n1 [AV1167, N-isobutyl-4-(pyrazolo[1,5-a]pyridin-3-yl)pyrimidin-2-amine] | – | 13 µM | 0.7 µM | – | 37 µM | – | effective dual inhibitors | particularly effective | 0.01 to 2 µM | 1.5 µM | – | – | –
5 | Cc1cccc2c(-c3ccnc(NC(C)C)n3)c(C(C)C)nn12 [AV1168, N-isopropyl-4-(2-isopropyl-7-methylpyrazolo[1,5-a]pyridin-3-yl)pyrimidin-2-amine] | particularly effective | 2.9 µM | 2.2 µM | 0 grams | 59 µM | – | effective dual inhibitors | – | – | 8.1 µM | – | – | –
6 | CCCCc1nn2ccccc2c1-c1ccnc(NC(C)C)n1 [AV1174, 4-(2-butylpyrazolo[1,5-a]pyridin-3-yl)-N-isopropylpyrimidin-2-amine] | particularly effective | 7.9 µM | 1.1 µM | – | 31 µM | – | effective dual inhibitors | particularly effective | 0.01 to 2 µM | 1.2 µM | – | – | –
7 | COCc1nn2ccccc2c1-c1ccnc(NC(C)C)n1 [AV1175, N-isopropyl-4-(2-(methoxymethyl)pyrazolo[1,5-a]pyridin-3-yl)pyrimidin-2-amine] | particularly effective | 8.6 µM | 1.2 µM | – | > 100 µM | – | effective dual inhibitors | particularly effective | – | 4.5 µM | – | – | –
8 | CC(C)Nc1nccc(-c2c(-c3ccccc3)nn3ccccc23)n1 [AV1176, N-isopropyl-4-(2-phenylpyrazolo[1,5-a]pyridin-3-yl)pyrimidin-2-amine] | particularly effective | 3.8 µM | 0.1 µM | – | > 100 µM | – | effective dual inhibitors | particularly effective | 0.01 to 2 µM | 0.1 µM | – | – | –
9 | CC(C)Cc1nn2ccccc2c1-c1ccnc(NC(C)C)n1 [AV1177, 4-(2-isobutylpyrazolo[1,5-a]pyridin-3-yl)-N-isopropylpyrimidin-2-amine] | particularly effective | 6.4 µM | 1.8 µM | – | > 100 µM | – | effective dual inhibitors | particularly effective | – | 3 µM | – | – | –
10 | Cc1nn2ccccc2c1-c1ccnc(NC2CCCC2)n1 [AV1182, N-cyclopentyl-4-(2-methylpyrazolo[1,5-a]pyridin-3-yl)pyrimidin-2-amine] | particularly effective | 5.7 µM | 0.9 µM | – | > 100 µM | – | effective dual inhibitors | particularly effective | – | – | – | – | –
11 | Clc1cccc(-c2nn3ccccc3c2-c2ccnc(NC3CCCC3)n2)c1 [AV1194, 4-(2-(3-chlorophenyl)pyrazolo[1,5-a]pyridin-3-yl)-N-cyclopentylpyrimidin-2-amine] | particularly effective | 5.2 µM | 0.08 µM | – | > 100 µM | – | effective dual inhibitors | particularly effective | 0.01 to 2 µM | 0.1 µM | 1.2 µM | 0.03 µM | Particularly effective
